According to PubChem BioAssay AID248 (DTP/NCI, 2004):
“And” between values parts separate entries of the source, which are not always exact repeats. Identical values can stand only once. Inconclusive results and toxic doses are left out. Rule as the data show it: active = T/C of 150% or more; inactive = T/C below 125%.

Tested on: L1210 leukemia ip in BDF1 mice, survival T/C
Test: NCI In Vivo Anticancer Drug Screen. Data for tumor model L1210 Leukemia (intraperitoneal) in B6D2F1 (BDF1) mice
Conditions: endpoint: mean survival time, higher = longer survival
In short: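 Tumor cells were implanted, animals were treated, and survival was followed. The result divides the treated measurement by the vehicle-control measurement.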

[1] = dose: 25.0 mg/kg/injection, schedule: Q01DX009 (ip), vehicle: saline
[2] = dose: 25.0 mg/kg/injection, schedule: Q04DX003 (ip), vehicle: saline
[3] = dose: 50.0 mg/kg/injection, schedule: Q01DX001 (ip), vehicle: saline
[4] = dose: 50.0 mg/kg/injection, schedule: Q01DX009 (ip), vehicle: saline
[5] = dose: 50.0 mg/kg/injection, schedule: Q04DX003 (ip), vehicle: saline
[6] = dose: 100.0 mg/kg/injection, schedule: Q01DX001 (ip), vehicle: saline
[7] = dose: 200.0 mg/kg/injection, schedule: Q01DX001 (ip), vehicle: saline
[8] = dose: 400.0 mg/kg/injection, schedule: Q01DX001 (ip), vehicle: saline
[9] = dose: 100.0 mg/kg/injection, schedule: Q04DX002 (ip), vehicle: saline with Tween-80
[10] = dose: 200.0 mg/kg/injection, schedule: Q04DX002 (ip), vehicle: saline with Tween-80
[11] = dose: 400.0 mg/kg/injection, schedule: Q04DX002 (ip), vehicle: saline with Tween-80

Measured: T/C

N[C@@H](Cc1ccc(O)c(O)c1)C(=O)O
inactive: [1] 101 % of control | [2] 94 % of control | [3] 87 % of control | [4] 100 % of control and 105 % of control | [5] 103 % of control and 105 % of control | [6] 94 % of control | dose: 100.0 mg/kg/injection, schedule: Q01DX009 (ip), vehicle: saline 92 % of control and 97 % of control | dose: 100.0 mg/kg/injection, schedule: Q04DX003 (ip), vehicle: saline 110 % of control | [7] 113 % of control | dose: 200.0 mg/kg/injection, schedule: Q01DX009 (ip), vehicle: saline 97 % of control and 105 % of control | dose: 200.0 mg/kg/injection, schedule: Q04DX003 (ip), vehicle: saline 98 % of control and 105 % of control | [8] 94 % of control | dose: 400.0 mg/kg/injection, schedule: Q01DX009 (ip), vehicle: saline 108 % of control and 112 % of control | dose: 400.0 mg/kg/injection, schedule: Q04DX003 (ip), vehicle: saline 94 % of control and 97 % of control

Brc1ccc2c(c1)-c1cc(Br)ccc1C2
inactive: dose: 50.0 mg/kg/injection, schedule: Q04DX002 (ip), vehicle: saline with Tween-80 95 % of control | [9] 100 % of control | [10] 103 % of control | [11] 95 % of control

CC1CC(C)S(=O)(=O)C1 (configuration not stated)
inactive: dose: 12.5 mg/kg/injection, schedule: Q01DX009 (ip), vehicle: saline 94 % of control | dose: 12.5 mg/kg/injection, schedule: Q04DX003 (ip), vehicle: saline 97 % of control | dose: 25.0 mg/kg/injection, schedule: Q01DX001 (ip), vehicle: saline 104 % of control | [1] 108 % of control | [2] 95 % of control | [3] 104 % of control | [4] 91 % of control | [5] 93 % of control

Nc1ccccc1Sc1ccc(Br)cc1[N+](=O)[O-]
inactive: dose: 37.5 mg/kg/injection, schedule: Q04DX003 (ip), vehicle: saline 98 % of control | dose: 75.0 mg/kg/injection, schedule: Q04DX003 (ip), vehicle: saline 102 % of control | dose: 150.0 mg/kg/injection, schedule: Q04DX003 (ip), vehicle: saline 93 % of control

O=C(O)C1CCC(SSC2CCC(C(=O)O)CC2[N+](=O)[O-])C([N+](=O)[O-])C1 (configuration not stated)
inactive: [9] 95 % of control | [10] 103 % of control | [11] 103 % of control

C1CC2CC1C1OC21 (configuration not stated)
inactive: [3] 103 % of control | [6] 100 % of control | dose: 100.0 mg/kg/injection, schedule: Q01DX009 (ip), vehicle: other 100 % of control | [7] 105 % of control | dose: 200.0 mg/kg/injection, schedule: Q01DX009 (ip), vehicle: other 101 % of control | [8] 103 % of control | dose: 400.0 mg/kg/injection, schedule: Q01DX009 (ip), vehicle: other 94 % of control

CN(N=O)C(=O)NCC1OC(n2cnc3c(N)ncnc32)C(O)C1O (configuration not stated)
inactive: dose: 9.0 mg/kg/injection, schedule: Q01DX001 (ip), vehicle: saline with Tween-80 95 % of control | dose: 13.0 mg/kg/injection, schedule: Q01DX001 (ip), vehicle: saline with Tween-80 98 % of control | dose: 26.0 mg/kg/injection, schedule: Q01DX001 (ip), vehicle: saline with Tween-80 96 % of control | dose: 40.0 mg/kg/injection, schedule: Q01DX001 (ip), vehicle: saline with Tween-80 96 % of control | dose: 60.0 mg/kg/injection, schedule: Q01DX001 (ip), vehicle: saline with Tween-80 98 % of control | dose: 90.0 mg/kg/injection, schedule: Q01DX001 (ip), vehicle: saline with Tween-80 103 % of control | dose: 133.0 mg/kg/injection, schedule: Q01DX001 (ip), vehicle: saline with Tween-80 101 % of control | dose: 200.0 mg/kg/injection, schedule: Q01DX001 (ip), vehicle: saline with Tween-80 106 % of control
